According to ChEMBL document CHEMBL1201862, “PubChem BioAssay data set” (2004):
Active and inactive are the calls of the source.

What was measured:
[1] = target: Voltage-gated inwardly rectifying potassium channel KCNH2 (Homo sapiens, UniProt Q12809); conditions: Potency;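 note: confirmatory quantitative high-throughput screen measuring inhibition of hERG channel activity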
A-375 [2] = assay: A375 melanoma cell viability reduction, dose response, counter-screen for MITF modulator project, cherry-pick samples, set 2 (AID 540335); type: functional, cell-based; conditions: Homo sapiens
[3] = Shn3 3'UTR reporter inhibitors, dose response, cell-based, Clone20 osteoblasts, firefly luciferase, cherry-picked (AID 624132); type: functional;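 note: firefly luciferase luminescence from reporter carrying the Shn3 3'UTR in osteoblasts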
[4] = target: Eukaryotic translation initiation factor 4E (Mus musculus, UniProt P63073); assay: eIF4E–eIF4G protein interaction inhibitors, dose response, biochemical, TR-FRET (AID 855); type: functional;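 note: potency for disrupting eIF4E binding to eIF4GI seen as loss of FRET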
cells = type: functional
A-375 [5] = assay: MITF: Counter assay: A375 proliferation Measured in Cell-Based System Using Plate Reader - 2084-03_Inhibitor_Dose_DryPowder_Activity. [Related pubchem assays (depositor defined):AID488944]; type: functional; conditions: Homo sapiens
[6] = target: T1, Microphthalmia-associated transcription factor (Homo sapiens, UniProt O75030); assay: TRPM1 promoter luciferase signal decrease, dose response, MITF inhibitor project, cell-based, SK-MEL-5, cherry-picked, set 3 (AID 493073); type: functional
T1 sequence (O75030 whole entry): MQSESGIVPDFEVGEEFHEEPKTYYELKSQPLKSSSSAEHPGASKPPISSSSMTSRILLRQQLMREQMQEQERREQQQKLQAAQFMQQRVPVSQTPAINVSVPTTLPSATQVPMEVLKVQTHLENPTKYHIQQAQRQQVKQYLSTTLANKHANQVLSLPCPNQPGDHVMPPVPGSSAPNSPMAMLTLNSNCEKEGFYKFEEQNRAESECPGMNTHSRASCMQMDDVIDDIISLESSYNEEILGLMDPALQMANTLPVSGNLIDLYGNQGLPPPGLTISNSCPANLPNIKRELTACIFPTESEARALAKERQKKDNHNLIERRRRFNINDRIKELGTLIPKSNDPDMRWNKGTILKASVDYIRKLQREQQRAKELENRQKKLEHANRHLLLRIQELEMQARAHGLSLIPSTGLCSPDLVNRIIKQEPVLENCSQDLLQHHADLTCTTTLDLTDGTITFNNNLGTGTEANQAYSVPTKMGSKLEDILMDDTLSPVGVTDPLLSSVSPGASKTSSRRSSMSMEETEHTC

[7] = control 3'UTR Renilla luciferase suppression, dose response, counter-screen for Shn3 inhibitor project, cell-based, Clone20-Shn3RL, cherry-picked (AID 624133); type: functional
[8] = Luminescence Cell-Based Dose Retest to Confirm Inhibitors of Cancer Stem Cells. [Related pubchem assays (depositor defined):AID2717, AID2721]; type: functional; conditions: Homo sapiens
[9] = HepG2 cell cytotoxicity, dose response, cytotoxicity control for Shn3 inhibitor project, CellTiter-Glo, cherry-picked (AID 624134); type: functional, cell-based
[10] = THP-1 cell cytotoxicity, dose response, cytotoxicity control for non-replicating M. tuberculosis project (AID 489025); type: functional
Beta-galactosidase = Beta-galactosidase (Escherichia coli, UniProt Q8VNN2); assay: beta-galactosidase enzyme inhibitors and activators, dose response, artefact control for CCR6 antagonist project, biochemical, E. coli enzyme, set 3 (AID 504712); type: functional
[11] = target: T2, Apoptotic protease-activating factor 1 (Homo sapiens, UniProt O14727); assay: activation of Apaf-1 mediated apoptosis – fluorescent, uHTS hits, dose response (AID 588554); type: functional
T2 sequence (O14727 whole entry): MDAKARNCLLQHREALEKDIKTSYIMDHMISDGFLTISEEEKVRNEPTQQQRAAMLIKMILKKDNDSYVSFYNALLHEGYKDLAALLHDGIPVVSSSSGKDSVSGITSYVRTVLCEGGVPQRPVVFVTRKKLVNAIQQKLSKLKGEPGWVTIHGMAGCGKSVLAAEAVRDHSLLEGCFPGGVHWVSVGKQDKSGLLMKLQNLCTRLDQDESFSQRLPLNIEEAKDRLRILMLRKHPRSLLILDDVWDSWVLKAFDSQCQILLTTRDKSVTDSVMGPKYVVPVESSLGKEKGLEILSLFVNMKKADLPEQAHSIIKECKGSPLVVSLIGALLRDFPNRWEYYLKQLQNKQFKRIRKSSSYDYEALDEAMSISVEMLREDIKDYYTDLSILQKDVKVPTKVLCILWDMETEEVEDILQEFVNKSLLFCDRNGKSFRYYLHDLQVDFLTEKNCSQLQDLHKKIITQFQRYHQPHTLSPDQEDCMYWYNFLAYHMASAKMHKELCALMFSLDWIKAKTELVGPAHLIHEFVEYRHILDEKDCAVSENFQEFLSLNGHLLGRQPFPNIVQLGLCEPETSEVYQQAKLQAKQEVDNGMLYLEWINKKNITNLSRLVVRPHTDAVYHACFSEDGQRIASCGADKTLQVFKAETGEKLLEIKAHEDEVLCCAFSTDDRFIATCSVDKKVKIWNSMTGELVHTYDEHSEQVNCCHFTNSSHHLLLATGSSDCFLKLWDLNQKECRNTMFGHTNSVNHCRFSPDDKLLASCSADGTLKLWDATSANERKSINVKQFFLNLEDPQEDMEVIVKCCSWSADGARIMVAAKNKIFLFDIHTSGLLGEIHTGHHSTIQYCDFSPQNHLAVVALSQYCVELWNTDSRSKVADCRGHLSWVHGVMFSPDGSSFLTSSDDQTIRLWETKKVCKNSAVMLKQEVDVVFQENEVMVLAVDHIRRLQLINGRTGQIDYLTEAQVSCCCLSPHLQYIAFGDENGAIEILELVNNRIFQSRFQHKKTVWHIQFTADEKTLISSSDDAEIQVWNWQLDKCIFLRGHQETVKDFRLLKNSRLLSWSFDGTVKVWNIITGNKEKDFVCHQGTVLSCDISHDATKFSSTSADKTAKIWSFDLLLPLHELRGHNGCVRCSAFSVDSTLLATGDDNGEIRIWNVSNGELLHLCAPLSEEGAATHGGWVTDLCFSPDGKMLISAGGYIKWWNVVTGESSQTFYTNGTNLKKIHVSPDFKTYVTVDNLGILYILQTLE

[12] = target: FAD-linked sulfhydryl oxidase ALR (Homo sapiens, UniProt P55789); assay: inhibitors of human ALR sulfhydryl oxidase, dose response, biochemical, H2O2 detection, luminescence, cherry-pick (AID 493248)
[13] = target: T3, Intestinal-type alkaline phosphatase (Homo sapiens, UniProt P09923); assay: Dose Response confirmation of uHTS hits from a small molecule inhibitors of human intestinal alkaline phosphatase via a luminescent assay. [Related pubchem assays (depositor defined):AID2544, AID2574]; type: functional
[14] = target: T4, Alkaline phosphatase, tissue-nonspecific isozyme (Homo sapiens, UniProt P05186); assay: inhibition of tissue-nonspecific alkaline phosphatase – biochemical, dose response (AID 488882); type: functional
T4 sequence (P05186 whole entry): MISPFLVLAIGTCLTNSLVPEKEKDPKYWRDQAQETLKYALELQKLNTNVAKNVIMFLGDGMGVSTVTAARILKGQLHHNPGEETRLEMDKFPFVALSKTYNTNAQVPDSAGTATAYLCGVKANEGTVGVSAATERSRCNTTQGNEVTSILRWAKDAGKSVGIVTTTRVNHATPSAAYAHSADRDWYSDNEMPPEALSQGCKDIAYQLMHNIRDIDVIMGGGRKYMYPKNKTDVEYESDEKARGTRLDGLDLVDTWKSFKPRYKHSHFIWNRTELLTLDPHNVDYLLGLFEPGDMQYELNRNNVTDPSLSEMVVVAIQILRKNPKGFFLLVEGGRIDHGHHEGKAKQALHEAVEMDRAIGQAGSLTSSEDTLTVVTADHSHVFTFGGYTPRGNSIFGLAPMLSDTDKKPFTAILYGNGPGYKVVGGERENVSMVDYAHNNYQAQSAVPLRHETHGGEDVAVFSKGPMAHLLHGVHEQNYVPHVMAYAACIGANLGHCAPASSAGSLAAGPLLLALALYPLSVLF

[15] = target: 26S proteasome non-ATPase regulatory subunit 14 (Homo sapiens, UniProt O00487); assay: inhibition of proteasome subunit RPN11 – biochemical, fluorescence polarization, uHTS hits, confirmation (AID 602368); type: functional
[16] = target: T3, Intestinal-type alkaline phosphatase; assay: human IAP inhibitors, dose response, biochemical, luminescent, uHTS hits, set 2 (AID 488793); type: functional
Prothrombin = Prothrombin (Bos taurus, UniProt P00735); assay: thrombin inhibition, dose response, biochemical, fluorescence polarization, uHTS hits (AID 602369); type: functional
Aminopeptidase N = target: T5, Aminopeptidase N (Plasmodium falciparum FcB1/Columbia, UniProt O96935); assay: P. falciparum M1AAP inhibitors, biochemical, fluorogenic H-Leu-NHMec substrate, 1536-well (AID 1445); parameters: species or system Plasmodium falciparum 3D7, 3D7
T5 sequence (O96935 whole entry): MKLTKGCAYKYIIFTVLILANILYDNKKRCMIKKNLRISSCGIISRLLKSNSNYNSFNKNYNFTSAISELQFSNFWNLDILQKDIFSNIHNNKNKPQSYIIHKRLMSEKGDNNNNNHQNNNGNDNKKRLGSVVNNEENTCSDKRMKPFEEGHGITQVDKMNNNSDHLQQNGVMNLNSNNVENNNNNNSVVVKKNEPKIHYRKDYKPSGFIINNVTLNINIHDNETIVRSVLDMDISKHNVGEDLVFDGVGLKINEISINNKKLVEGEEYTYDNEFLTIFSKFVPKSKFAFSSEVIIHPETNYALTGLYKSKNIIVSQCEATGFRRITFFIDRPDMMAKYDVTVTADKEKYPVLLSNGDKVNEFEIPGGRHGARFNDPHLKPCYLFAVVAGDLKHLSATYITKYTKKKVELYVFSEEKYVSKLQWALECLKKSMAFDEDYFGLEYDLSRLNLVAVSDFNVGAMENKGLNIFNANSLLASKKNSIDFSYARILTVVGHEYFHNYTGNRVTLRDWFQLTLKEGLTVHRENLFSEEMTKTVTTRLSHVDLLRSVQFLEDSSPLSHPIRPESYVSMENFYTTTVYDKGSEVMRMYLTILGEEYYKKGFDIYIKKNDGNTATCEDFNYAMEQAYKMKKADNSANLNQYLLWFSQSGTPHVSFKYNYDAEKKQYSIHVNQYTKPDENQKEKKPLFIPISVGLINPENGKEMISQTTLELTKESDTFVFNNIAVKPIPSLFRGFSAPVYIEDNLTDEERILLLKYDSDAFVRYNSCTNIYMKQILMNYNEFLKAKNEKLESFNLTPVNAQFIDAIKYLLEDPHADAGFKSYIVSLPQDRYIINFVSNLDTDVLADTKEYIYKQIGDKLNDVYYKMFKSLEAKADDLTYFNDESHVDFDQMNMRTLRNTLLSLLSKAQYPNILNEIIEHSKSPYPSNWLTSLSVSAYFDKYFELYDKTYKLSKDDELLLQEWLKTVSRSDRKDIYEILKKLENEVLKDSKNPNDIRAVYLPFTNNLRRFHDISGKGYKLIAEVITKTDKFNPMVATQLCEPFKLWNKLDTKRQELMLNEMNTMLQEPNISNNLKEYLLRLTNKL

[17] = target: Intestinal-type alkaline phosphatase (Mus musculus, UniProt P24822); assay: PubChem AID 488874; type: functional
[18] = target: 72 kDa type IV collagenase (Homo sapiens, UniProt P08253); assay: Dose Response validation of uHTS RPN11 inhibitor hits using a MMP-2 Fluorescence assay.; type: functional
[19] = target: Heat shock protein HSP 90-alpha (Homo sapiens, UniProt P07900); type: functional, organism-based
[20] = target: Phosphoethanolamine/phosphocholine phosphatase (Homo sapiens, UniProt Q8TCT1); assay: SAR assay for compounds that inhibit PHOSPHO1. [Related pubchem assays (depositor defined):AID1545, AID1565, AID1574]
Phosphomannomutase 2 = Phosphomannomutase 2 (Homo sapiens, UniProt O15305); assay: Counter screen SAR assay for PMM2 inhibitors via a fluorescence intensity assay. [Related pubchem assays (depositor defined):AID1545, AID1574]
[21] = target: T6, Mannose-6-phosphate isomerase (Homo sapiens, UniProt P34949); assay: PMI enzyme inhibitors, confirmation, biochemical, fluorescence intensity (AID 1535)
T6 sequence (P34949 whole entry): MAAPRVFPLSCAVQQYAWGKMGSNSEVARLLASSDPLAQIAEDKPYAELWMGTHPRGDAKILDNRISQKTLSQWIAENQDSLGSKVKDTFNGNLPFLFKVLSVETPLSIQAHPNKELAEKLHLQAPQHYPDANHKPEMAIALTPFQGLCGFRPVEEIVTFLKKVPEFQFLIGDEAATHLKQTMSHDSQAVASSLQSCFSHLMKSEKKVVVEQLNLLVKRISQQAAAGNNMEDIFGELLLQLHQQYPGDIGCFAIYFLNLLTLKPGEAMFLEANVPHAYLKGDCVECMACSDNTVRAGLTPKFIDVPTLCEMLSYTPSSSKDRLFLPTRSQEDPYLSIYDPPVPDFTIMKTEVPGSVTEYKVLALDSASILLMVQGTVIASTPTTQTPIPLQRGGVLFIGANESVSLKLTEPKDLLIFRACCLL

HeLa = assay: HeLa cell cytotoxicity, dose response, cytotoxicity control for MITF activator project, CellTiter-Glo luminescence, cherry-pick samples (AID 540259); type: functional, cell-based; conditions: Homo sapiens

T3 sequence (P09923 whole entry): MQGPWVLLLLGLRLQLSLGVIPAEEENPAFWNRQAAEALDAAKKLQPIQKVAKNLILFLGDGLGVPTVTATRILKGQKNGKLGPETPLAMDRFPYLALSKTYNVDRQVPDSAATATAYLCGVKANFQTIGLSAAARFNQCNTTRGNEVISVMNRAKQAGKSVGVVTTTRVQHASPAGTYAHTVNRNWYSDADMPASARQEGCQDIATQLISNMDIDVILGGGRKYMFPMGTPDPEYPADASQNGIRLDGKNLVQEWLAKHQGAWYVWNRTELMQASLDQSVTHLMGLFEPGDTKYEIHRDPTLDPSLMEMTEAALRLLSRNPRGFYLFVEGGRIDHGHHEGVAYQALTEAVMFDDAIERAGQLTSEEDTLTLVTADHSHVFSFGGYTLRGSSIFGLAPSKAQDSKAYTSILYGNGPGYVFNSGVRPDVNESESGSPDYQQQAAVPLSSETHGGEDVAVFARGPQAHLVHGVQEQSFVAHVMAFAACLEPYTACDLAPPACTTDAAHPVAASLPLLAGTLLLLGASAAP
Chain of 72 kDa type IV collagenase (P08253 whole entry): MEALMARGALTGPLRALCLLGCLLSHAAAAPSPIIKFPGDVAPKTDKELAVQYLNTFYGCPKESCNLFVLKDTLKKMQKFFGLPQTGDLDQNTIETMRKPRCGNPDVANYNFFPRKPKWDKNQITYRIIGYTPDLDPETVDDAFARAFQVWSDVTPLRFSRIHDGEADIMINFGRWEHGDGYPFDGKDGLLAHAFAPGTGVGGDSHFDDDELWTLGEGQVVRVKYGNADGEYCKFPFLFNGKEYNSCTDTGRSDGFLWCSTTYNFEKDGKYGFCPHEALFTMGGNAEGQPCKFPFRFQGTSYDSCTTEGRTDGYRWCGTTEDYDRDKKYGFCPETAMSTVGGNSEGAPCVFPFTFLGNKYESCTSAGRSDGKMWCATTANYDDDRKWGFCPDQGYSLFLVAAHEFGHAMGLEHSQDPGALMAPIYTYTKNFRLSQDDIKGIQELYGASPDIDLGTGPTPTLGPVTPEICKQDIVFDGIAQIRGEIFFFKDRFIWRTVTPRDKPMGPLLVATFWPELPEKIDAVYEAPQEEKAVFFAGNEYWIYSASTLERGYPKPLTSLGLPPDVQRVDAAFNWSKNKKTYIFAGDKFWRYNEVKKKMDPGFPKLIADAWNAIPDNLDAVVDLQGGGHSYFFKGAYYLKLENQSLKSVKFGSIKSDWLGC
Chain of Phosphomannomutase 2 (O15305 whole entry): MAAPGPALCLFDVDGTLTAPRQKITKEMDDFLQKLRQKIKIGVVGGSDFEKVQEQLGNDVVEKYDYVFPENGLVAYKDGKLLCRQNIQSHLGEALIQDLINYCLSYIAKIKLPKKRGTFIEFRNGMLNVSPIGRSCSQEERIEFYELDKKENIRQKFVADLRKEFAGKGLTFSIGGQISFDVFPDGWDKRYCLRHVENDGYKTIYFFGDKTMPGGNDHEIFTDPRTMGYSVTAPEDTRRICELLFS
Chain of Eukaryotic translation initiation factor 4E (P63073 whole entry): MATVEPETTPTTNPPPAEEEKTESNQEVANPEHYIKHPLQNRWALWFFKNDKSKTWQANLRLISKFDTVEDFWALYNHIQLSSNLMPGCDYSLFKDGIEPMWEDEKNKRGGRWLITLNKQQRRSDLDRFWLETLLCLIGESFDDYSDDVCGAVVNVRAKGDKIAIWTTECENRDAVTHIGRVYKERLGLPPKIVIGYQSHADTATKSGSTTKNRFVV
Chain of FAD-linked sulfhydryl oxidase ALR (P55789 whole entry): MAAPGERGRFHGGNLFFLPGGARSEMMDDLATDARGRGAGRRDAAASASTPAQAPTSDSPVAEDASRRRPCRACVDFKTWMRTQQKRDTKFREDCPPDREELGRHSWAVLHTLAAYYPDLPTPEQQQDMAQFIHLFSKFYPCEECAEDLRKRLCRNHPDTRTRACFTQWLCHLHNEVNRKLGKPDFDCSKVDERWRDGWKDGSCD
Chain of Beta-galactosidase (Q8VNN2 whole entry): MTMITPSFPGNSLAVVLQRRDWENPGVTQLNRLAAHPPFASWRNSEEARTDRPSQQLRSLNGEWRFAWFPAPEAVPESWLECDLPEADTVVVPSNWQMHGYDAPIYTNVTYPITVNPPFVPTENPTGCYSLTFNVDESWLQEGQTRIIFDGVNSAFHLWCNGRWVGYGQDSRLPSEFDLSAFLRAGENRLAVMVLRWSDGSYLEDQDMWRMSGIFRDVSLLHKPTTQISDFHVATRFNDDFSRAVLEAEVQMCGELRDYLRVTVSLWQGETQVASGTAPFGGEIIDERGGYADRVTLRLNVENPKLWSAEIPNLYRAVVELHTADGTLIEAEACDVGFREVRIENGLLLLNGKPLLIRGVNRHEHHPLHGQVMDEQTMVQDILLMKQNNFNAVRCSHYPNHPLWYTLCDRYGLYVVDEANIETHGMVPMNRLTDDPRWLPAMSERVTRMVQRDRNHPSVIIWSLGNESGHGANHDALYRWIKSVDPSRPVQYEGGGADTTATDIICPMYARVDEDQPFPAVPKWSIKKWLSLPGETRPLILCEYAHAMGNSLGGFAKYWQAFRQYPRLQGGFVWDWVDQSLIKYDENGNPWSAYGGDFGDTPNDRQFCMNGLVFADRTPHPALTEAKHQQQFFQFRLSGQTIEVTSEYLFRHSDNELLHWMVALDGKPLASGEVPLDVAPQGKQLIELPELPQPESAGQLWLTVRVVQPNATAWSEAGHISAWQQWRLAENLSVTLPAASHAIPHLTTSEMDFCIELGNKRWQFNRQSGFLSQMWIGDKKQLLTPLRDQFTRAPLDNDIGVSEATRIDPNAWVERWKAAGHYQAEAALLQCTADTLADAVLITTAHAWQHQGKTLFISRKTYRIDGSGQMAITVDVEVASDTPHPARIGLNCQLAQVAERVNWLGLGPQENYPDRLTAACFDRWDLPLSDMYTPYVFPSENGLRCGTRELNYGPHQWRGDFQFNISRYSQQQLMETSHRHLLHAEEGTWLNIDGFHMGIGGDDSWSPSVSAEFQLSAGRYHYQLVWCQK
Chain of Voltage-gated inwardly rectifying potassium channel KCNH2 (Q12809 whole entry): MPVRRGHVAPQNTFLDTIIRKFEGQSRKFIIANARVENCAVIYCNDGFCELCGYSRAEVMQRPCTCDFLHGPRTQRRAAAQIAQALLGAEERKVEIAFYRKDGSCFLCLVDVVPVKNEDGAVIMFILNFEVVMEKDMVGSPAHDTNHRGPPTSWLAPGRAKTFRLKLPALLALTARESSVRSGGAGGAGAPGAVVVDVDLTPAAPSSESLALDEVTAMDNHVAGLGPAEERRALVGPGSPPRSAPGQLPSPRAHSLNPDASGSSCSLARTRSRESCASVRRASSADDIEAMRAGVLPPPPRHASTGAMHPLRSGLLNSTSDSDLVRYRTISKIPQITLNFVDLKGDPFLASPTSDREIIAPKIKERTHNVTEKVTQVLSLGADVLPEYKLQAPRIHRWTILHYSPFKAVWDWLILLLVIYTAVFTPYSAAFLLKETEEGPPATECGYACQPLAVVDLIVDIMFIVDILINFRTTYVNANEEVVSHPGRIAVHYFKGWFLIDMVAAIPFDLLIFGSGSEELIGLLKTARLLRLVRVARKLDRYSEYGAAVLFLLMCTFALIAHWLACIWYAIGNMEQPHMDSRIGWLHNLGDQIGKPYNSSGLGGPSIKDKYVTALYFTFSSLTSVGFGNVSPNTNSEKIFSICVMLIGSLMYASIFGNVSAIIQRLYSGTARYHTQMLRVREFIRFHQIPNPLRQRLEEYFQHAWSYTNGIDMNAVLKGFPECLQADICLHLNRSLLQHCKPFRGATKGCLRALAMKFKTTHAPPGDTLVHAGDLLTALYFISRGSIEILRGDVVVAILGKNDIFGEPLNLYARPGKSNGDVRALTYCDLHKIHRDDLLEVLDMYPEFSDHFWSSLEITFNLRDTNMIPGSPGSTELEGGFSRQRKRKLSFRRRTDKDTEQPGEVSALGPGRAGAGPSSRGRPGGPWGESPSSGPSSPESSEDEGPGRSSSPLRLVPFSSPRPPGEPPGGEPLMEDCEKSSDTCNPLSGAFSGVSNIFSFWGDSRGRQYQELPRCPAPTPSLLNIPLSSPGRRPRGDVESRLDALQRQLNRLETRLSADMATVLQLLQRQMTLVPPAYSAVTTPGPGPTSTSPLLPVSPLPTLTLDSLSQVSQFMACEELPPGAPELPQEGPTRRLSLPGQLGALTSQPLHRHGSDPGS
Chain of Intestinal-type alkaline phosphatase (Mus musculus, UniProt P24822) (P24822 whole entry): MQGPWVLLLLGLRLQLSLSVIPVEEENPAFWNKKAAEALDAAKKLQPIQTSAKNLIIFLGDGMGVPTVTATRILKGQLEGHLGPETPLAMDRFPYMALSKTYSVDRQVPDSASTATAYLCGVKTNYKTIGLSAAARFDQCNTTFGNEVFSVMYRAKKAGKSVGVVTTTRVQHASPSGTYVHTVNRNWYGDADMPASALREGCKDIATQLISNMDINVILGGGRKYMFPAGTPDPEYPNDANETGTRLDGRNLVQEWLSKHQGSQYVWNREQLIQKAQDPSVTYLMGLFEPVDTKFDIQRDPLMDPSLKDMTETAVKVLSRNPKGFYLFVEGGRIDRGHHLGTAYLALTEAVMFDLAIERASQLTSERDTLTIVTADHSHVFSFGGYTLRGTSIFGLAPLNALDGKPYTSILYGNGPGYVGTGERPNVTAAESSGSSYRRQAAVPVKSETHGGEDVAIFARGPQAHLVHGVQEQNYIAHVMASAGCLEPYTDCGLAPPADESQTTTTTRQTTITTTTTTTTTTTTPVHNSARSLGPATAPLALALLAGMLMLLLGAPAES
Chain of Phosphoethanolamine/phosphocholine phosphatase (Q8TCT1 whole entry): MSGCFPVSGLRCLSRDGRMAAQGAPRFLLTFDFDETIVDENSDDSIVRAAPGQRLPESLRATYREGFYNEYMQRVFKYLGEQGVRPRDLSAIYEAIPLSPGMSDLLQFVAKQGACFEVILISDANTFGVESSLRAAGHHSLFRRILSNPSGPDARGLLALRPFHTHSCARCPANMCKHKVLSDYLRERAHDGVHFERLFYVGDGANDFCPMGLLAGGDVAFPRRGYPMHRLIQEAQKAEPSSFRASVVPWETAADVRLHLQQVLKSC

SMILES: COc1ccccc1N1CCN(CCN(C(=O)C2CCCCC2)c2ccccn2)CC1
- AC50 [1]: 31.6 µM (inconclusive)

SMILES: Cc1ccc(Oc2c(C(N)=O)cc([N+](=O)[O-])cc2[N+](=O)[O-])cc1
- AC50 (A-375 [2]): > 11 µM (active)
- AC50 [3]: 11.9 µM (active)
- IC50 [4]: > 64 µM (inactive)
- IC50 (cells): 1.31 µM (active)
- AC50 (A-375 [5]): > 11 µM (active)
- AC50 [6]: 3.68 µM (active)
- AC50 [7]: 4.73 µM (active)
- AC50 [8]: 2.99 µM (active)
- AC50 [9]: 25.2 µM (active)
- CC50 [10]: 22.4 µM (active)
- IC50 (Beta-galactosidase): > 66.6 µM (inactive)

SMILES: N#CCCn1cc(C(CC(=O)c2ccc(Br)cc2)C(=O)O)c2ccccc21 (configuration not stated)
- EC50 [11]: 22.9 µM (active)
- AC50 [12]: > 100 µM (inactive)

SMILES: O=C(NN1C(=O)/C(=C/c2ccc(O)c([N+](=O)[O-])c2)SC1=S)c1ccccc1Cl
- IC50 [13]: 25.4 µM (inactive)
- IC50 [14]: 29.8 µM (active)
- IC50 [15]: 39.7 µM (active)
- IC50 [16]: 22.9 µM (active)
- IC50 (Prothrombin): 32 µM (active)
- IC50 (Aminopeptidase N): 71.1 µM (active)
- IC50 [17]: 10.6 µM (active)
- IC50 [18]: 82.1 µM (active)
- AC50 [19]: 2.86 µM (active)

SMILES: O=C1c2ccccc2C(=O)c2c1ccc1c(=O)n(-c3cccc([N+](=O)[O-])c3)sc21
- IC50 [20]: 3.6 µM (inactive)
- IC50 (Phosphomannomutase 2): > 100 µM (inactive)
- IC50 [21]: > 50 µM (inactive)

SMILES: Cc1ccc(C(=O)O/N=C(\N)c2ccc(Br)cc2)cc1
- AC50 (HeLa): 48.5 µM (active)
